{
  "source": "ChEMBL document CHEMBL1150213",
  "about": "“Protein-tyrosine kinase inhibition: mechanism-based discovery of antitumor agents” (J Nat Prod, 1992)",
  "key": {"[1]": {"target": "Proto-oncogene tyrosine-protein kinase Src (Homo sapiens, UniProt P12931)", "sequence (P12931 2-536 limits assumed)": "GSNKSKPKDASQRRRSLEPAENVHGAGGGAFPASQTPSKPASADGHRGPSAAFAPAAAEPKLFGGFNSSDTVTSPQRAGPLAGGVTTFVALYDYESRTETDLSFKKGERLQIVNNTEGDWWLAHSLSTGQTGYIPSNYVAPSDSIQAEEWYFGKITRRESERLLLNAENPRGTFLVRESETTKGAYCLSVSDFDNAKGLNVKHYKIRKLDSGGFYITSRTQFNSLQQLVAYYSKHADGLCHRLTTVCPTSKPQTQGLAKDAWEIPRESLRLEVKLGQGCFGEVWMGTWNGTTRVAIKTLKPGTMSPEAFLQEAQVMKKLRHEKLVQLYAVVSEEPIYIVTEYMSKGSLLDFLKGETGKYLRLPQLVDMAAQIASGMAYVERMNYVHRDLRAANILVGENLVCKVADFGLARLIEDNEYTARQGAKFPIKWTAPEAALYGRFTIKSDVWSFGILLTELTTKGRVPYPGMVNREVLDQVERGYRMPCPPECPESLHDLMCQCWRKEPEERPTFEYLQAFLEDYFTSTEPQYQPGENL", "description": "Inhibition of p60c-src expressed in chick embryo fibroblast"}, "NRK": {"tested_on": "NRK", "assay": "Growth inhibition of Rous sarcoma virus-transformed rat NRK cells", "assay_type": "cell-based"}, "[2]": {"target": "Tyrosine-protein kinase transforming protein Fps (Fujinami sarcoma virus, UniProt P00530)", "sequence (P00530 whole entry)": "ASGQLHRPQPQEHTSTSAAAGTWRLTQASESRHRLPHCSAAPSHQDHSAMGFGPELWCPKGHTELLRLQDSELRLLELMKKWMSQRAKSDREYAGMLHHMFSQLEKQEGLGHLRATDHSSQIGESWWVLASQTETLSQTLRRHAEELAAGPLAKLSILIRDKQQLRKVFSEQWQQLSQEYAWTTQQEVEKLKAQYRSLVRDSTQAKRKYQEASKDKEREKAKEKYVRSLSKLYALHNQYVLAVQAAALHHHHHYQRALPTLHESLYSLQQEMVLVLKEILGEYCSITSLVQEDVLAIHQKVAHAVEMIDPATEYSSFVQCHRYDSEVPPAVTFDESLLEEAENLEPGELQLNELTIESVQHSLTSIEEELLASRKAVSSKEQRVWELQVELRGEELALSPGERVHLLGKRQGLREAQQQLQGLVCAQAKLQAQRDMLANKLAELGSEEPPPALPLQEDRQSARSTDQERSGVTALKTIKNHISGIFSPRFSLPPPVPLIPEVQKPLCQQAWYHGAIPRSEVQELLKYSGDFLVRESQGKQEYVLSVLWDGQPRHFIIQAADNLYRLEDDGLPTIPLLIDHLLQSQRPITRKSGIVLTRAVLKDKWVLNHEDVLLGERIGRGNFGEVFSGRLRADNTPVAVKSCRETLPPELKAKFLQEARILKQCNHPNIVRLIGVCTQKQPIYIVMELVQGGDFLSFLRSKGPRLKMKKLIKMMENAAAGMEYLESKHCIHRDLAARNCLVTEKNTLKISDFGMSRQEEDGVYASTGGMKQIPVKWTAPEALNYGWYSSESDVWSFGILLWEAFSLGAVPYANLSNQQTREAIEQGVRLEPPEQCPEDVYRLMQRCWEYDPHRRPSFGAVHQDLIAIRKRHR", "assay": "Inhibition of Fujinami sarcoma virus pp130fps"}, "Insulin receptor": {"target": "Insulin receptor (Homo sapiens, UniProt P06213)", "sequence (P06213 28-758 limits assumed)": "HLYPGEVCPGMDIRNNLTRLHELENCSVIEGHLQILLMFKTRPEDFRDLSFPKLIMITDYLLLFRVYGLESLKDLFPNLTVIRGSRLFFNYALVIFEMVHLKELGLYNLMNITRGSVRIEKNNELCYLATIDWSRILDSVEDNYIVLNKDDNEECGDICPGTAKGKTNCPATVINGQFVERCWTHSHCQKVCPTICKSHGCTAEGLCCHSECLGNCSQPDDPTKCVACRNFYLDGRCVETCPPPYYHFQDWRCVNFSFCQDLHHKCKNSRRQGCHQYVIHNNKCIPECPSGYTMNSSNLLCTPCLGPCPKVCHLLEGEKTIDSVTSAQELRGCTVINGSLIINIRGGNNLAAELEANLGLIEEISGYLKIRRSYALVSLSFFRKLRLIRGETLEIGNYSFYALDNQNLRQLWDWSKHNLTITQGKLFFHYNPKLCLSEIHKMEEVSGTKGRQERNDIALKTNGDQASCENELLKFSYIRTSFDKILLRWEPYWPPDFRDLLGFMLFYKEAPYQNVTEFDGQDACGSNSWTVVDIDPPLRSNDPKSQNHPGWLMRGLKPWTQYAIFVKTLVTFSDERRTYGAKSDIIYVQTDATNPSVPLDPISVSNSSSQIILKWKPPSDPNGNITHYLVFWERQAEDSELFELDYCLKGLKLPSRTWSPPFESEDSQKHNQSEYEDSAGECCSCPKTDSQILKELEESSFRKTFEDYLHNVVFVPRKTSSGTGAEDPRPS", "sequence (P06213 763-1382 limits assumed)": "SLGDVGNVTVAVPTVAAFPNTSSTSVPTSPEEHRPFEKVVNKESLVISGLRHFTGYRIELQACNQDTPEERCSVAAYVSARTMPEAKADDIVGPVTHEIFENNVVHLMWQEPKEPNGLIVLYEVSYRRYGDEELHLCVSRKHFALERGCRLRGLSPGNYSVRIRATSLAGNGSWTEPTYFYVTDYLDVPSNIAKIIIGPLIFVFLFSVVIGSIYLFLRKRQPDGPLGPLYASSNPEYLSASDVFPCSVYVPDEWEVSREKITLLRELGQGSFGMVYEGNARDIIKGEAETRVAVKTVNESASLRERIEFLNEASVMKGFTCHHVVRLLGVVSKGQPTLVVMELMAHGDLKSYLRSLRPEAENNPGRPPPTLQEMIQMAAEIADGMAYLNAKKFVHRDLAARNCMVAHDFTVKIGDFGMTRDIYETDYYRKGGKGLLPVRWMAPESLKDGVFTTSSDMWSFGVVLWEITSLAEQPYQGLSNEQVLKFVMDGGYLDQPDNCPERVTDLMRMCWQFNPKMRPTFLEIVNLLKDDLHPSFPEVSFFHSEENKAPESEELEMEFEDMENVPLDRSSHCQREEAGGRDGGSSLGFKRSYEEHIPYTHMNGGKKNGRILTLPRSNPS", "assay": "Inhibition of insulin receptor"}, "CCRF-CEM": {"tested_on": "CCRF-CEM", "assay": "Cytotoxicity against human CCRF-CEM cells", "assay_type": "functional, cell-based"}, "HL-60(TB)": {"tested_on": "HL-60(TB)", "assay": "Cytotoxicity against human HL-60(TB) cells", "assay_type": "functional, cell-based"}, "K562": {"tested_on": "K562", "assay": "Cytotoxicity against human K562 cells", "assay_type": "functional, cell-based"}, "MOLT-4": {"tested_on": "MOLT-4", "assay": "Cytotoxicity against human MOLT4 cells", "assay_type": "functional, cell-based"}, "RPMI-8226": {"tested_on": "RPMI-8226", "assay": "Cytotoxicity against human RPMI8226 cells", "assay_type": "functional, cell-based"}, "SR": {"tested_on": "SR", "assay": "Cytotoxicity against human SR cells", "assay_type": "functional, cell-based"}},
  "data": [
    {"compound": "Nc1ncnc2c1ncn2[C@@H]1O[C@H](COP(=O)(O)OP(=O)(O)OP(=O)(O)OP(=O)(O)O)[C@@H](O)[C@H]1O", "values": [
      {"measurement": "IC50", "setting": "[1]", "result": 9000, "unit": "nM"}
    ]},
    {"compound": "O=c1c(-c2ccc(O)c(O)c2)coc2cc(O)cc(O)c12", "note": "[OROBOL]", "values": [
      {"measurement": "IC50", "setting": "NRK", "result": 4, "unit": "µg/mL"}
    ]},
    {"compound": "O=c1c(O)c(-c2cc(O)c(O)c(O)c2)oc2cc(O)cc(O)c12", "note": "[MYRICETIN]", "values": [
      {"measurement": "Ki", "setting": "[2]", "result": 1800, "unit": "nM"},
      {"measurement": "Ki", "setting": "Insulin receptor", "result": 2600, "unit": "nM"}
    ]},
    {"compound": "Nc1ncnc2c1ncn2[C@@H]1O[C@H](COP(=O)(O)O)[C@@H](O)[C@H]1O", "note": "[ADENOSINE PHOSPHATE]", "values": [
      {"measurement": "IC50", "setting": "[1]", "result": 100, "unit": "nM"}
    ]},
    {"compound": "CO[C@H]1[C@@H](OC)C[C@H](C)[C@@H](OC)C2=CC(=O)C=C(NC(=O)/C(C)=C/C=C/[C@H](OC)[C@@H](OC(N)=O)/C(C)=C/[C@@H]1C)C2=O", "note": "[HERBIMYCIN]", "values": [
      {"measurement": "IC50", "setting": "CCRF-CEM", "result": "> 1000", "unit": "nM"},
      {"measurement": "IC50", "setting": "HL-60(TB)", "result": "> 1000", "unit": "nM"},
      {"measurement": "IC50", "setting": "K562", "result": 95, "unit": "nM"},
      {"measurement": "IC50", "setting": "MOLT-4", "result": "> 1000", "unit": "nM"},
      {"measurement": "IC50", "setting": "RPMI-8226", "result": "> 1000", "unit": "nM"},
      {"measurement": "IC50", "setting": "SR", "result": "> 1000", "unit": "nM"}
    ]}
  ]
}
